Consider six molecules from patent US20260274843A1, “SALT AND SOLID FORMS OF A CDK INHIBITOR” (GENENTECH, INC., priority 2023, published 2026).

Converted amounts (≈) assume the structure as drawn. Some results are limits rather than exact numbers.

Holding throughout (type): physicochemical
The nature of data set [1]: Inter-conversion study by competitive slurry of mixed forms (XRPD). The settings on record: for resulting form after competitive slurry: RT and 50° C. or 60° C. As to the method:
Inter-conversion study was performed by competitive slurry of mixed different forms in solvents. The concentration of all slurry suspensions was 20 mg/mL.
Equal amount of Form I, II, III and IV were added into MeOH, IPA, EA, ACN and water to make suspensions, respectively. All suspensions were stirred at RT and 50° C. The filter cakes were checked by XRPD.
Equal amount of Form I and II were added into the saturated solution of Compound (I). The suspensions were stirred in MeOH, IPA and EA at 60° C. overnight. The filter cakes were checked by XRPD.
Equal amount of Form II and VII were added into the saturated solution of Compound (I). The suspensions were stirred in IPA and EA at RT and 50° C. The filter cakes were checked by XRPD.
Equal amount of Form II and VI were slurred in different water activity system (1 mL of EtOH/water) at RT for 3 days. Solid samples were collected by filtration and analyzed by XRPD.
Equal amount of Form III and VI were slurred in water at RT and 50° C. Solid samples were collected by filtration and analyzed by XRPD.

Data set [2] in a line: Estimated solubility measurement in selected solvents at room temperature. As to conditions: thermodynamic from solid. As to the method: Preliminary solubility of Compound (I) was estimated in 13 selected solvents at room temperature. About 2 mg of Compound (I) was weighed into sample vials and different solvents were added with vortex, 20-200 μL per time, until the drug solution was clear by observation. The volume of solvent was up to 1000 V. Then, the estimated solubility (mg/mL) was calculated.

Data set [3] in a line: Dynamic vapor sorption (DVS) moisture sorption/desorption. As to conditions: for hygroscopicity: in words. As to the method: Moisture sorption/desorption data was collected on a DVS Intrinsic PLUS (SMS, UK). The sample was placed into a tared sample chamber and automatically weighed. The sample was dried at 40° C./0% RH until the dm/dt was less than 0.002% and cooled to 25° C. The instrument parameters were set as below. • Sample temperature: 25° C. • Min time per step: 30 min • Max time per step: 120 min • Cycle: Full cycle • Adsorption: 0, 10, 20, 30, 40, 50, 60, 70, 80, 90 • Desorption: 80, 70, 60, 50, 40, 30, 20, 10, 0 • Save data rate: 5 s • Total flow rate: 200 sccm • Post experimental total flow: 200 sscm

The nature of data set [4]: Solubility testing in bio-relevant media (SGF, FaSSIF, FeSSIF) and water at 37° C. As to conditions: after 0.5 hours. Here is the method:
The solubility of maleate Form I, and tosylate Form I were tested in bio-relevant media (SGF, FaSSIF, and FeSSIF) and water at 37° C. up to 24 hours. About 15 mg of the sample was weighed into sample vials and then 3 mL of media was added to make a suspension. All suspensions were shaken at 37° C. with a rate of 200 rpm. At 0.5, 2 and 24 hours, each suspension was filtered and the filtrate was analyzed by HPLC to test the solubility. pH of the filtrate was measured, and the filter cake was analyzed by XRPD.

Data set [5] in a line: Physical stability at RT/92.5% RH (XRPD). The settings on record: open, 10 days. As to the method: (§1) Form II was prepared, characterized, and used for stability study. Solid stability of Form II was evaluated at RT/92.5% RH, 60° C. and 40° C./75% RH conditions for 10 days, respectively.
Appropriate amount of Form II was open put at RT/92.5% RH condition for 10 days. Then, the sample was checked by XRPD.

Data set [6] can be described thus: Solid stability at 40° C./75% RH and 60° C. (HPLC purity, XRPD). As to conditions: open; for Purity (Area %): HPLC. As to the method: as §1
An amount of Form II was open placed at 60° C. and 40° C./75% RH up to 10 days. At 0, 3 and 10 day, the sample was dissolved in diluent to prepare solution for purity analysis by HPLC. Solid samples were analyzed by XRPD to check the crystal form. […] Form II was physically and chemically stable at 40° C./75% RH and 60° C. for 10 days.
Appropriate amounts of maleate Form I and tosylate Form I were placed at 60° C. and 40° C./75% RH for up to 24 days. At 0 and 24 day, the sample was dissolved in diluent to prepare solution for purity analysis by HPLC. Solid samples were analyzed by XRPD to check the crystal form.

The nature of data set [7]: Mechanical treatment (grinding), XRPD check. As to conditions: ground in mortar, checked at 2 min and 5 min. Here is the method: Form II (~15 mg) was ground into a mortar for about 5 minutes, and then checked by XRPD at 2 min and 5 min, respectively.
The mark [8] stands for this setting: 40° C./75% RH and 60° C., up to 10 days.

Turning to `CC(C)c1cnn2ccc(-c3ccnc(Nc4ccc(N5CC[C@H](N(C)C)CC5=O)cn4)n3)cc12` [Form IV, (S)-4-(dimethylamino)-1-(6-((4-(3-isopropylpyrazolo[1,5-a]pyridin-5-yl)pyrimidin-2-yl)amino)pyridin-3-yl)piperidin-2-one], the “resulting form after competitive slurry” value in data set [1] (non-aqueous solvent) is “transformed to Form II”.
With `CC(C)c1cnn2ccc(-c3ccnc(Nc4ccc(N5CC[C@H](N(C)C)CC5=O)cn4)n3)cc12` [Compound (I), (S)-4-(dimethylamino)-1-(6-((4-(3-isopropylpyrazolo[1,5-a]pyridin-5-yl)pyrimidin-2-yl)amino)pyridin-3-yl)piperidin-2-one], the solubility (commonly how much of the substance goes into solution per volume) was more than 120 mg/mL in data set [2] (organic solvent or mixture, DCM); 1 to 7 mg/mL (≈ 2.13 to 14.9 mM) in data set [2] (organic solvent or mixture, MeOH, MEK, EtOH and ACN); approximately 20 mg/mL (≈ 42.5 mM) in data set [2] (organic solvent or mixture, THF); less than 1 mg/mL in data set [2] (other selected solvents).
With `CC(C)c1cnn2ccc(-c3ccnc(Nc4ccc(N5CC[C@H](N(C)C)CC5=O)cn4)n3)cc12` [Form III, (S)-4-(dimethylamino)-1-(6-((4-(3-isopropylpyrazolo[1,5-a]pyridin-5-yl)pyrimidin-2-yl)amino)pyridin-3-yl)piperidin-2-one], the “resulting form after competitive slurry” value in data set [1] (non-aqueous solvent) is recorded as “transformed to Form II”. Further, in data set [1] (50° C.), the “resulting form after slurry in water” value is “to Form VI”.
`CC(C)c1cnn2ccc(-c3ccnc(Nc4ccc(N5CC[C@H](N(C)C)CC5=O)cn4)n3)cc12` [Form I, (S)-4-(dimethylamino)-1-(6-((4-(3-isopropylpyrazolo[1,5-a]pyridin-5-yl)pyrimidin-2-yl)amino)pyridin-3-yl)piperidin-2-one]: the hygroscopicity entry in data set [3] is listed as “non-hygroscopicity”. Also, the “crystal form in water during solubility test” value in data set [4] was “converted to a metastable hydrate”. Further, the “resulting form after competitive slurry” value in data set [1] (non-aqueous solvent) is “transformed to Form II”.
Consider `CC(C)c1cnn2ccc(-c3ccnc(Nc4ccc(N5CC[C@H](N(C)C)CC5=O)cn4)n3)cc12` [Form VI, (S)-4-(dimethylamino)-1-(6-((4-(3-isopropylpyrazolo[1,5-a]pyridin-5-yl)pyrimidin-2-yl)amino)pyridin-3-yl)piperidin-2-one], for which the “resulting form after slurry in water” value in data set [1] (RT) is given as “transformed to Form III”.
`CC(C)c1cnn2ccc(-c3ccnc(Nc4ccc(N5CC[C@H](N(C)C)CC5=O)cn4)n3)cc12` [Form II, (S)-4-(dimethylamino)-1-(6-((4-(3-isopropylpyrazolo[1,5-a]pyridin-5-yl)pyrimidin-2-yl)amino)pyridin-3-yl)piperidin-2-one]: the “reversibility of DVS adsorption/desorption plot” value in data set [3] is “nearly reversible”. Besides, the “water absorbed (DVS)” value in data set [3] (0-90% RH, 25° C.) is on record as ~ 0.5%. Besides, in data set [3] (XRPD after DVS), the “crystal form after DVS testing” value is “remained unchanged”. The hygroscopicity entry in data set [3] is on record as “slightly hygroscopic”. The “crystal form change (XRPD)” value in data set [5] is listed as “No form change”; in data set [6] (setting [8]), “no form changed”. Moreover, the “degradation (purity by HPLC)” value in data set [6] (setting [8]) was “No obvious degradation”. Further, the “Purity (Area %)” value in data set [6] (40° C./75% RH, 0 d (initial)) worked out at 99.17 Area %; in data set [6] (40° C./75% RH, 3 d), 99.15 Area %; in data set [6] (40° C./75% RH, 10 d), 99.13 Area %; in data set [6] (60° C., 0 d (initial)) it was 99.17 Area %; in data set [6] (60° C., 3 d) it was 99.15 Area %; in data set [6] (60° C., 10 d), 99.09 Area %. Besides, the “resulting form in competitive slurry with Form VI” value in data set [1] (EtOH/50% water, RT) is “transformed to the mixture of Form II and III”. Also, the “physical stability in competitive slurry with Form VI” value in data set [1] (EtOH/water with less than 5% of water, RT) is “physically stable”. Also, the “relative stability among anhydrous forms” value in data set [1] (temperature below 60° C., non-aqueous solvent) is listed as “most stable anhydrous form”. In addition, the “resulting form after slurry in water” value in data set [1] (50° C.) is “mixture of Form II and III”; in data set [1] (RT) it was “transform to Form III”. In addition, the “crystal form after grinding” value in data set [7] was “remained unchanged”.
